# From the supplement of paper PMC10307832
# How the values were obtained:
# [1] = compound: C[C@]1(O)C[C@@H](c2nc(-c3ccc4ccc(-c5ccccc5)nc4c3)c3c(N)nccn32)C1 [Linsitinib] + Nc1ncn([C@H]2C[C@H](O)[C@@H](CO)O2)c(=O)n1 [Decitabine] (partner 2 µM); experiment: relative viability (nuclei count vs DMSO), 5 days (fraction); higher = more cells survive
# Method in brief: (§1)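 For relative viability, nuclei counts in treated wells were divided by those in vehicle wells. Lung cancer cell lines had been pin-tool dosed in 1536-well plates the day after seeding and cultured for 5 days, then fixed and stained in one step (final 0.05% Triton X-100, 1% formaldehyde, 1 ug/ml Hoechst) and imaged at 4×. Doses were one drug alone or a fixed anchor-drug dose plus five library-drug doses (not always all listed) in √10 steps, and values are duplicate-plate medians.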
# [2] = compound: Cc1ccc(C(=O)N(CCCN)[C@@H](c2nc3cc(Cl)ccc3c(=O)n2Cc2ccccc2)C(C)C)cc1 [Ispinesib] + CC(=O)Nc1cccc(-n2c(=O)n(C3CC3)c(=O)c3c(Nc4ccc(I)cc4F)n(C)c(=O)c(C)c32)c1 [Trametinib] (partner 0.02 µM); experiment: as above
# Method in brief: as §1
Cell Line,relative viability ([1]; first compound 0.01 µM),relative viability ([1]; first compound 0.03162 µM),relative viability ([1]; first compound 0.1 µM),relative viability ([1]; first compound 0.3162 µM),relative viability ([1]; first compound 1 µM),relative viability ([2]; first compound 0.001 µM),relative viability ([2]; first compound 0.003162 µM),relative viability ([2]; first compound 0.01 µM),relative viability ([2]; first compound 0.03162 µM),relative viability ([2]; first compound 0.1 µM)
NCI-H661,0.545,0.676,0.536,0.492,0.535,0.625,0.616,0.567,0.274,0.277
CAL-12T,–,–,–,–,–,0.353,0.315,0.28,0.294,0.215
HARA,0.518,0.533,0.526,–,0.678,0.727,0.634,0.816,1.14,0.234
NCI-H596,1.03,1.06,1.11,0.976,1.01,0.745,0.876,0.799,0.83,0.706
LU99A,0.924,0.881,0.81,–,0.917,0.514,0.579,0.577,0.335,0.352
LC-2-ad,0.776,0.719,0.864,0.726,0.742,0.934,0.944,0.92,0.9,0.474
NCI-H1650,0.571,0.449,0.415,0.325,0.361,0.726,0.581,0.556,0.417,0.315
NCI-H1915,0.272,0.312,0.266,0.247,0.263,0.29,0.323,0.314,0.279,0.22
ABC-1,1.02,1.17,1.22,0.995,0.842,–,–,–,–,–
HCC-44,0.922,0.977,0.919,0.552,0.746,1.06,1.05,1.09,1.07,1.11
HCC-78,–,0.818,0.649,0.588,0.682,1.04,0.869,1.2,0.493,0.513
LXF-289,0.366,0.481,0.382,0.333,0.39,0.667,0.729,0.762,0.629,0.606
201T,0.868,0.881,0.904,0.832,0.889,0.743,0.75,0.729,0.692,0.678
NCI-H1734,0.512,0.502,0.463,0.516,0.487,0.685,0.622,0.684,0.684,0.429
NCI-H2126,0.6,0.675,0.574,0.544,0.577,0.542,0.574,0.58,0.589,0.508
LOU-NH91,0.813,0.806,0.803,0.715,0.782,0.772,0.774,0.814,0.725,0.309
NCI-H1792,0.496,0.484,0.512,0.472,0.363,0.42,0.463,0.515,0.398,0.117
NCI-H1651,0.316,0.744,0.518,0.516,0.597,0.836,0.896,0.887,0.882,0.831
A549,0.246,0.234,0.309,0.12,0.241,–,–,–,–,–
HCC-366,0.35,0.354,0.349,0.293,0.326,0.386,0.428,0.403,0.411,0.0793
EKVX,–,0.37,0.329,0.348,0.324,0.321,–,0.361,0.603,0.218
NCI-H1993,0.646,0.564,0.473,0.506,0.499,0.619,0.527,0.414,0.508,0.423
NCI-H2342,0.765,0.78,0.732,0.688,0.75,0.892,0.819,0.896,0.797,0.722

Cell Line,relative viability ([1]; first compound 0.01 µM),relative viability ([1]; first compound 0.03162 µM),relative viability ([1]; first compound 0.1 µM),relative viability ([1]; first compound 0.3162 µM),relative viability ([1]; first compound 1 µM),relative viability ([2]; first compound 0.001 µM),relative viability ([2]; first compound 0.003162 µM),relative viability ([2]; first compound 0.01 µM),relative viability ([2]; first compound 0.03162 µM),relative viability ([2]; first compound 0.1 µM)
NCI-H23,0.305,0.314,0.322,0.264,0.298,0.372,0.472,0.32,0.358,0.208
HCC-827,0.165,0.427,0.287,–,0.34,0.595,0.516,0.542,0.57,0.59
PC-3 [JPC-3],0.822,0.902,0.91,0.77,0.814,0.717,0.83,0.689,0.664,0.375
NCI-H1355,0.378,0.353,0.334,0.309,0.317,0.469,0.456,0.41,0.414,0.288
NCI-H727,0.671,1.05,0.752,0.58,0.63,0.376,0.39,–,0.382,0.419
NCI-H1975,0.375,0.452,0.376,0.34,0.363,0.345,0.337,0.364,0.158,0.158
NCI-H460,0.497,0.483,0.511,–,0.424,0.225,0.207,0.218,0.0463,0.0454
EPLC-272H,0.316,0.375,0.389,–,0.344,0.302,0.277,0.306,0.225,0.206
NCI-H522,0.657,0.773,0.614,0.688,0.587,0.814,0.879,0.913,0.788,0.646
SW 900,0.474,0.537,0.466,0.374,0.388,0.914,0.947,1.02,0.924,0.326
SK-LU-1,0.605,0.635,0.637,0.624,0.602,0.506,0.524,0.458,0.359,0.356
NCI-H322M,0.68,0.818,0.719,0.757,0.674,0.529,0.586,0.449,0.514,0.467
NCI-H2405,0.709,0.813,0.713,0.686,0.588,0.708,0.632,0.525,0.566,0.478
NCI-H1666,0.622,0.79,0.732,0.521,0.602,0.934,0.864,0.788,0.858,0.604
NCI-H358,0.242,0.354,0.256,0.208,0.222,0.126,0.131,0.128,0.115,0.106
H3255,–,0.627,0.559,0.518,0.686,0.621,0.711,0.622,0.448,0.328
LCLC-103H,0.757,0.713,0.658,0.628,0.739,0.724,0.7,0.723,0.667,0.654
NCI-H2347,0.644,0.668,0.629,0.591,0.614,0.299,0.23,0.294,0.343,0.252
LK-2,0.221,0.407,0.232,0.187,0.185,0.742,0.819,0.801,0.751,0.516
NCI-H1648,0.468,0.445,0.428,0.377,0.46,0.47,0.559,0.479,0.583,0.496
HCC-15,0.63,0.509,0.61,0.28,0.368,0.262,0.42,0.422,0.381,0.296
SW 1573,0.648,0.589,0.447,0.472,0.348,0.614,0.547,0.516,0.158,0.144
NCI-H838,0.462,0.581,0.452,0.284,0.405,0.627,0.529,0.542,0.359,0.164

Cell Line,relative viability ([1]; first compound 0.01 µM),relative viability ([1]; first compound 0.03162 µM),relative viability ([1]; first compound 0.1 µM),relative viability ([1]; first compound 0.3162 µM),relative viability ([1]; first compound 1 µM),relative viability ([2]; first compound 0.001 µM),relative viability ([2]; first compound 0.003162 µM),relative viability ([2]; first compound 0.01 µM),relative viability ([2]; first compound 0.03162 µM),relative viability ([2]; first compound 0.1 µM)
RERF-LC-KJ,0.726,0.651,0.622,0.599,0.665,0.898,0.869,0.787,0.514,0.528
ChaGo-K-1,0.504,0.519,0.49,–,0.51,0.903,0.999,1.06,0.992,0.895
NCI-H441,0.246,0.26,0.223,0.212,0.257,0.47,0.458,0.284,0.255,0.212
NCI-H2170,0.445,0.528,0.461,–,0.468,1.02,0.933,1.09,0.684,0.488
PC-14,0.2,0.196,0.22,0.158,0.172,0.788,0.707,0.282,0.0652,0.101
NCI-H2009,0.36,0.4,0.366,0.359,0.396,0.28,0.271,0.287,0.203,0.151
NCI-H1395,0.691,–,0.777,0.695,0.702,1.13,1.1,1.06,0.682,0.409
NCI-H1437,0.541,0.551,0.555,0.4,0.599,0.557,0.541,0.688,0.614,0.144
NCI-H647,0.39,0.524,0.395,0.405,0.43,0.536,0.508,0.434,0.209,0.133
NCI-H1793,0.428,0.634,0.547,0.422,0.454,0.47,0.433,0.412,0.421,0.244
SK-MES-1,0.39,0.369,0.387,0.418,0.423,0.586,0.533,0.583,0.21,0.195
NCI-H2087,0.275,0.387,0.257,0.259,0.267,0.153,0.196,0.212,0.236,0.0806
BEN,0.526,0.945,0.65,0.442,0.747,1.07,1.17,1.15,0.916,0.677
NCI-H3122,0.442,0.388,0.424,–,0.462,0.284,0.252,0.246,0.316,0.162
LCLC-97TM1,0.251,0.261,0.24,0.204,0.245,0.219,0.238,0.219,0.169,0.137
NCI-H2228,–,–,–,–,–,0.615,0.496,0.415,0.263,0.28
COR-L23,0.399,0.539,0.418,0.351,0.441,0.611,0.565,0.376,0.103,0.168
EMC-BAC-2,0.98,1.11,0.881,0.733,0.727,0.846,0.966,0.965,0.624,0.312
NCI-H1944,0.426,0.53,0.422,0.398,0.341,0.431,0.408,0.36,0.383,0.334
A-427,0.597,0.595,0.577,–,0.523,0.721,0.811,0.745,0.463,0.226
NCI-H520,0.456,0.59,0.501,–,0.555,0.775,0.663,0.557,0.229,0.221
NCI-H650,0.313,0.396,0.287,–,0.306,0.969,1.07,1.03,0.828,0.779
COR-L 105,0.636,0.569,0.597,0.554,0.659,0.466,0.424,0.426,0.363,0.377
